Measurements reported in US8258128B2, “Organic compounds” (Novartis AG, priority 2006, dated 2012).
Like-named read-outs stand apart in the source and are kept apart here. Marks after values point to notes of the source that are not given here.

What was measured:
[1] = tested on: collagen-induced arthritis in the rats; experiment: Collagen-induced arthritis in the rats, histological evaluation of hind paws; format: in vivo, rat; conditions: day 11
Method: Method: For this study, COMPOUND A and COX-inhibitor Diclofenac are dissolved in a solvent containing 5% of glucose (5 ml/kg). Compounds are given orally once a day. Female rats of the WAGxBUF/F1 crossbred strain (weight 130 g) are used. The animals are divided into several groups, one placebo group (N=8), and four treatment groups (each N=7-8). Treatment starts on peak of disease (day 0) and continues for 11 days. Swelling is assessed at regular time intervals by measuring the external thickness of the hind paws in the region of the metatarsals using a micro-caliper. Tissue samples for histological evaluation are obtained at the end of the in vivo experiment, 5 h after the last oral dose of COMPOUND A or placebo on day 11.
Hind paws from control arthritic rats (vehicle-treated), taken post-mortem at the end of day 11 of the treatment, obtained relatively high histological scorings compared to histological scores of animals treated with COMPOUND A (0.3, 1, 3 and 9 mg/kg) or Diclofenac (1 mg/kg).

[2] = tested on: established Adjuvant-induced arthritis in rats; experiment: Established adjuvant-induced arthritis in rats (therapeutic dosing schedule); format: in vivo, rat; conditions: for ED50: Rattus norvegicus, read-out: Estimated ED50
Text: Adjuvant arthritis can be treated using two different dosing schedules; either starting at the time of immunization with adjuvant (prophylactic dosing) or from day 15 when the arthritic response is already established (therapeutic dosing). It is more difficult to inhibit adjuvant arthritis with the therapeutic dosing schedule as compared to the prophylactic schedule. Both versions of adjuvant arthritis are, however, extremely sensitive to the effects of both non-selective COX inhibitors and COX 2 selective inhibitors where 70-90% inhibition of swelling can be achieved at appropriate doses. These models may be predictive for some of the processes thought to be relevant in rheumatoid arthritis.
Method: Female Wistar rats weighing 150-170 g (housed in standard conditions, 5 animals per cage, with food and water ad libitum) are injected i.d. at the base of the tail with 0.1 ml of mineral oil containing 0.6 mg of lyophilized heat-killed Mycobacterium tuberculosis. The rats are treated orally with COMPOUND A or placebo formulation from day 15 to day 22 (therapeutic dosing schedule) or with COMPOUND A from day 0 to day 14 after immunization (prophylactic dosing schedule). At the end of the experiment, the swelling of the tarsal joints is measured by means of a micro-caliper. For the comparison study to Diclofenac both compounds are given from day 15 to day 29 with readouts at day 22 and 29. Percentage inhibition of paw swelling is calculated by reference to placebo treated arthritic animals (0% inhibition) and placebo treated normal animals (100% inhibition). Five animals are used per group. Data are analyzed using Kruskal-Wallis non-parametric ANOVA followed by Dunn's Multiple Comparison test.

[3] = 0.3 mg/kg/day p.o., 7 day treatment (Table 7)
[4] = 1 mg/kg/day p.o., 7 day treatment (Table 7)
[5] = 1.25 mg/kg/day p.o., 7 days treatment, readout day 22 (Table 8)
[6] = 1.25 mg/kg/day p.o., 14 days treatment, readout day 29 (Table 8)
[7] = 2.5 mg/kg/day p.o., 7 days treatment, readout day 22 (Table 8)
[8] = 2.5 mg/kg/day p.o., 14 days treatment, readout day 29 (Table 8)
[9] = 3 mg/kg/day p.o., 7 day treatment (Table 7)
[10] = 5 mg/kg/day p.o., 7 days treatment, readout day 22 (Table 8)

SMILES: COC1=Nc2cc(Cl)ccc2/C(=C/C(=O)O)c2sc(Cl)cc21 [COMPOUND A, [2,7-Dichloro-10-methoxy-3-thia-9-aza-benzo[f]azulen-(4Z)-ylidene]-acetic acid]
- Bone apposition, effect on histological score ([1]; 0.3 mg/kg/day p.o.): +4%
- Cartilage damage, effect on histological score ([1]; 0.3 mg/kg/day p.o.): −6%
- Infiltration of cells, effect on histological score ([1]; 0.3 mg/kg/day p.o.): +8%
- Loss of PG, effect on histological score ([1]; 0.3 mg/kg/day p.o.): +1%
- Bone apposition, effect on histological score ([1]; 1 mg/kg/day p.o.): −28%
- Cartilage damage, effect on histological score ([1]; 1 mg/kg/day p.o.): −24%
- Infiltration of cells, effect on histological score ([1]; 1 mg/kg/day p.o.): −7%
- Loss of PG, effect on histological score ([1]; 1 mg/kg/day p.o.): −13%
- Bone apposition, effect on histological score ([1]; 3 mg/kg/day p.o.): −35% *
- Cartilage damage, effect on histological score ([1]; 3 mg/kg/day p.o.): −40% *
- Infiltration of cells, effect on histological score ([1]; 3 mg/kg/day p.o.): −25%
- Loss of PG, effect on histological score ([1]; 3 mg/kg/day p.o.): −28% *
- Bone apposition, effect on histological score ([1]; 9 mg/kg/day p.o.): −51% **
- Cartilage damage, effect on histological score ([1]; 9 mg/kg/day p.o.): −56% ***
- Infiltration of cells, effect on histological score ([1]; 9 mg/kg/day p.o.): −34% **
- Loss of PG, effect on histological score ([1]; 9 mg/kg/day p.o.): −40% *
- % inhibition [2, 3]: 15.8 * %
- Swelling (mm) ± S.D. [2, 3]: 6.79 ± 0.9 mm
- % inhibition [2, 4]: 39.0 * %
- Swelling (mm) ± S.D. [2, 4]: 4.92 ± 0.63 mm
- % inhibition [2, 5]: 51.0 * %
- Swelling (mm) ± S.D. [2, 5]: 4.22 ± 0.57 mm
- % inhibition [2, 6]: 60.3 * %
- Swelling (mm) ± S.D. [2, 6]: 3.06 ± 0.63 mm
- % inhibition [2, 7]: 60.5 * %
- Swelling (mm) ± S.D. [2, 7]: 3.40 ± 0.92 mm
- % inhibition [2, 8]: 62.0 * %
- Swelling (mm) ± S.D. [2, 8]: 2.93 ± 0.80 mm
- % inhibition [2, 9]: 45.0 * %
- Swelling (mm) ± S.D. [2, 9]: 4.41 ± 0.59 mm
- % inhibition [2, 10]: 65.0 * %
- Swelling (mm) ± S.D. [2, 10]: 2.94 ± 1.28 mm
- Swelling (mm) ± S.D. ([2]; 5 mg/kg/day p.o., 14 days treatment, readout day 29 (Table 8)): 2.23 ± 0.66 mm
- Swelling (mm) ± S.D. ([2]; 9 mg/kg/day p.o., 7 day treatment (Table 7)): 2.84 ± 0.73 mm
- ED50 ([2]; 336 h, 2 week treatment schedule): < 1.25 mg/kg
- ED50 ([2]; po, 168 h, p.o., one week treatment schedule): ≤ 1.25 mg/kg
